Data: patent US8236523B2, “Camp reporters and high throughput assays” (The Johns Hopkins University, priority 2004, dated 2012)

Tests used:
Type in all cases: cell-based
[1] = test system: cAMP; experiment: Dual-emission ratio (FRET) imaging of Epac-based cAMP reporters (ICUE1 and targeted fusions) in HEK-293 cells; settings: HEK293 cells expressing ICUE1; 10 μM ISO, 50 μM FSK, 10 μM PGE1, 300 μM 8-pCPT-2′-O-Me-cAMP; average ± S.E.M
Experimental: Cell Culture. […] Cells were then transfected with FuGENE-6 transfection reagent (Roche) or calcium phosphate and allowed to grow for 12-24 hours before imaging.
Imaging. Cells were washed twice with Hanks' balanced salt solution buffer after 12- to 24-h incubation at 37° C. culture medium. Cells were maintained in buffer in the dark at room temperature with addition of isoproterenol (Aldrich), forskolin (Calbiochem), Prostaglandin E1 (PGE1) (Sigma), and 8-(4-chloro-phenylthio)-2′-O-methyl adenosine 3′,5′-monophosphate (8-pCPT-2′-O-Me-cAMP) (Axxora Biolog) as indicated. Cells were also treated with P-(4,5-dimethoxy-2-nitrobenzyl) adenosine 3′,5′-monophosphate (DMNB-cAMP) (Molecular Probe).
Cells were imaged on a Zeiss Axiovert 200M microscope with a cooled charge-coupled device camera MicroMAX BFT512 (Roper Scientific) controlled by METAFLUOR 6.2 software (Universal Imaging). Dual-emission ratio imaging used a 420DF20 excitation filter, a 450DRLP dichroic mirror and two emission filters (475DF40 for ECFP, 535DF25 for citrine) alternated by a filter changer Lambda 10-2 (Sutter Instruments). Exposure time was 100-500 ms and images were taken every 8-30 s. Fluorescent images were background-corrected by subtracting autofluorescence intensities of untransfected cells (or background with no cells) from the emission intensities of fluorescent cells expressing reporters. The ratios of cyan to yellow emissions were then calculated at different time points and normalized by dividing all ratios by the emission ratio just prior to stimulation therefore setting the basal emission ratio to 1.

[2] = test system: cAMP; experiment: High throughput 96-well plate assay using ICUE2 stable HEK293 cells; settings: 1 μM Iso, 50 μM Fsk, 10 μM H89, 100 μM IBMX
Experimental: HEK293 cells which stably express ICUE2 (“ICUE2 stable HEK293 cells”) were grown to confluency in 10 cm dishes in DMEM, 10% FBS, 1% penicillin/streptomycin, and 250 μg/ml G418. HEK-293 cells were transfected with cDNA encoding ICUE2 using calcium phosphate at 40% confluency and allowed to grow for 40 hours. Cells were removed from the dish using 0.05% trypsin, spun down, and replaced with fresh media. ICUE2 stable HEK293 cells were counted on a hemocytometer using trypan blue stain. One hundred fifty thousand (150,000) cells were plated per well on a 96-well clear bottom assay plate in a total of 0.2 ml of media per […] and allowed to double once. Media was removed, cells were washed with Hanks buffered salt solution (HBSS) and then covered with 0.05 ml of HBSS per well. In a separate sterile plate, appropriate drugs were added to each well containing HBSS for a total volume of 0.05 ml. […] A baseline was established in three cycles, each consisting of a full plate reading of yellow intensity, followed by a reading of cyan intensity. Cells were then treated with isoproterenol (ISO; […] Readings were taken in six or twenty additional cycles. […] Baseline FRET ratios were calculated as the average ratio of yellow/cyan for each well before the addition of drug. FRET change was calculated as the percent increase of FRET ratio over baseline for each well during a given cycle. The FRET changes of all wells having undergone the same drug treatment were then averaged within each cycle, and that cycle was correlated with time.

[3] = test system: cAMP; experiment: 96-well live cell plate reading of HEK293 cells expressing ICUE3; settings: HEK293 cells expressing ICUE3, 1 μM ISO, 50 μM FSK
Experimental: Plate reading used a 420DF20 excitation filter and two emission filters (470DF40 for cyan and 535DF25 for yellow). A baseline was established in three cycles, each consisting of a full plate reading of yellow intensity, followed by a reading of cyan intensity. Cells were then treated with isoproterenol (ISO; Aldrich), forskolin (Calbiochem), H89, propranolol, and 3-isobutyl-1-methylxanthine (IBMX) as indicated. Readings were taken in six or twenty additional cycles. Each cycle lasted 60 to 145 sec. Baseline FRET ratios were calculated as the average ratio of yellow/cyan for each well before the addition of drug. FRET change was calculated as the percent increase of FRET ratio over baseline for each well during a given cycle. The FRET changes of all wells having undergone the same drug treatment were then averaged within each cycle, and that cycle was correlated with time.
Live cell plate reading. HEK293 cells were transfected with cDNA encoding ICUE reporters using calcium phosphate at 40% confluency and allowed to grow for 40 hours. Cells were then trypsinized and plated in a Costar 3603 96-well assay plate (Coming) at a density of 150,000 cells per well. After incubation for another 24 hours, cells were washed once with HBSS and left in 150 μl HBSS at 20-25° C. Fluorescence reading was taken on a FLUOstar OPTIMA fluorescence microplate reader (BMG Labtechnologies Inc.) using a 420DF20 excitation filter and two emission filters (470DF40 for cyan and […] for yellow). A baseline was established in three cycles, each consisting of a full plate reading of yellow intensity, followed by a reading of cyan intensity. Each cycle lasted between 64 and 145 seconds. Readings were taken in additional cycles. FRET change was calculated as the percent increase of emission ratios (cyan-to-yellow) over baseline for each well during a given cycle. To assess the efficacy of the assay, several statistical parameters were calculated, including Z factor, coefficient of variation, and signal-to-noise ratio (Zhang et al., J. Biomol. Screen. 4, 67-73, 1999).

C=C[C@@]1(C)CC(=O)[C@]2(O)[C@@]3(C)[C@@H](O)CCC(C)(C)[C@@H]3[C@H](O)[C@H](OC(C)=O)[C@@]2(C)O1 [forskolin] was tested, and the “increase in the ratio of cyan to yellow emissions (FRET response)” value [1] was 19.6%±1.0, the “Average percent FRET response ± standard deviation, cycle 1” value ([2]; cycle 1 (1 cycle = 60 seconds)) was 0.36% ± 7.51% and the “Average percent FRET response ± standard deviation, cycle 2” value ([2]; cycle 2 (1 cycle = 60 seconds)) was 2.67% ± 4.53%. The “Average percent FRET response ± standard deviation, cycle 3” value ([2]; cycle 3 (1 cycle = 60 seconds)) was 8.71% ± 6.66%, the “Average percent FRET response ± standard deviation, cycle 4” value ([2]; cycle 4 (1 cycle = 60 seconds)) was 15.29% ± 3.37% and the “Average percent FRET response ± standard deviation, cycle 5” value ([2]; cycle 5 (1 cycle = 60 seconds)) was 15.23% ± 6.55%. The “Average percent FRET response ± standard deviation, cycle 6” value ([2]; cycle 6 (1 cycle = 60 seconds)) was 18.73% ± 3.97%, the “Average percent FRET response ± standard deviation, cycle 7” value ([2]; cycle 7 (1 cycle = 60 seconds)) was 20.79% ± 4.6% and the “Average percent FRET response ± standard deviation, cycle 8” value ([2]; cycle 8 (1 cycle = 60 seconds)) was 22.82% ± 4.58%. For the same compound, the “Average percent FRET response ± standard deviation, cycle 9” value ([2]; cycle 9 (1 cycle = 60 seconds)) was 24.98% ± 3.69%, the “Average percent FRET response ± standard deviation, cycle 10” value ([2]; cycle 10 (1 cycle = 60 seconds)) was 23.4% ± 4.53% and the “Average percent FRET response ± standard deviation, cycle 11” value ([2]; cycle 11 (1 cycle = 60 seconds)) was 24.46% ± 3.51%. The “Average percent FRET response ± standard deviation, cycle 12” value ([2]; cycle 12 (1 cycle = 60 seconds)) was 25.44% ± 2.14%, the “Average percent FRET response ± standard deviation, cycle 13” value ([2]; cycle 13 (1 cycle = 60 seconds)) was 24.97% ± 3.91% and the “Average percent FRET response ± standard deviation, cycle 14” value ([2]; cycle 14 (1 cycle = 60 seconds)) was 25.6% ± 4.31%. The “Average percent FRET response ± standard deviation, cycle 15” value ([2]; cycle 15 (1 cycle = 60 seconds)) was 27.0% ± 1.87%, the “Average percent FRET response ± standard deviation, cycle 16” value ([2]; cycle 16 (1 cycle = 60 seconds)) was 25.84% ± 3.57% and the “Average percent FRET response ± standard deviation, cycle 17” value ([2]; cycle 17 (1 cycle = 60 seconds)) was 26.32% ± 1.66%. The “Average percent FRET response ± standard deviation, cycle 18” value ([2]; cycle 18 (1 cycle = 60 seconds)) was 25.94% ± 3.05%, the “Average percent FRET response ± standard deviation, cycle 19” value ([2]; cycle 19 (1 cycle = 60 seconds)) was 25.98% ± 2.13% and the “Average percent FRET response ± standard deviation, cycle 20” value ([2]; cycle 20 (1 cycle = 60 seconds)) was 25.51% ± 1.67%. For the same compound, the “Average percent FRET response ± standard deviation, 0 sec.” value ([3]; 0 sec., 10 μM PRO, 100 μM IBMX, 10 μM H89) was 9.05% ± 3.18%, the “Average percent FRET response ± standard deviation, 145 sec.” value ([3]; 145 sec., 10 μM PRO, 100 μM IBMX, 10 μM H89) was 13.0% ± 3.17% and the “Average percent FRET response ± standard deviation, 290 sec.” value ([3]; 290 sec., 10 μM PRO, 100 μM IBMX, 10 μM H89) was 14.8% ± 3.35%. The “Average percent FRET response ± standard deviation, 435 sec.” value ([3]; 435 sec., 10 μM PRO, 100 μM IBMX, 10 μM H89) was 16.7% ± 3.33%, the “Average percent FRET response ± standard deviation, 580 sec.” value ([3]; 580 sec., 10 μM PRO, 100 μM IBMX, 10 μM H89) was 16.8% ± 3.27% and the “Average percent FRET response ± standard deviation, 725 sec.” value ([3]; 725 sec., 10 μM PRO, 100 μM IBMX, 10 μM H89) was 17.9% ± 3.63%. For the same compound, the “maximal response / emission ratio change” value ([3]; n=7) was 17.9%±3.6%.
